From article PMC11844072, “Novel 5,6-dichlorobenzimidazole derivatives as dual BRAFWT and BRAFV600E inhibitors: design, synthesis, anti-cancer activity and molecular dynamics simulations” (BMC Chemistry, 2025)

What was measured:
HT29 cell line = assay: Cell cycle analysis (PI flow cytometry); assay type: cell-based, human
Experimental: 7. Analysis of cell cycle distribution
HT29: Colon Cancer was obtained from Nawah Scientific Inc., (Mokatam, Cairo, Egypt). Cells were maintained in DMEM media supplemented with […] of streptomycin, 100 units/mL of penicillin and 10% of heat-inactivated fetal bovine serum in humidified, 5% (v/v) CO 2 atmosphere at 37 °C. After treatment with test compound 8m for 48h, cells (10^5 cells) are collected by trypsinization and washed twice with ice-cold PBS (pH 7.4). Cells are re-suspended in two milliliters of 60% ice-cold ethanol and incubated at 4 °C for 1h for fixation. Fixed cells are washed twice again with PBS (pH 7.4) and re-suspended in 1 mL of PBS containing 50 μg/mL RNAase A and 10 μg/mL propidium iodide (PI). After 20 min of incubation in dark at 37 °C, cells are analyzed for DNA contents using flow cytometry analysis using FL2 (λex/em 535/617 nm) signal detector (ACEA Novocyte™ flowcytometer, ACEA Biosciences Inc., San Diego, CA, USA). For each sample, 12,000 events are acquired. Cell cycle distribution is calculated using ACEA NovoExpress™ software (ACEA Biosciences Inc., San Diego, CA, USA). […]

BRAFV600E = BRAFV600E (Homo sapiens, UniProt P15056, V600E); assay: BRAFV600E kinase assay kit (Kinase-Glo Max luminescence)
Experimental: (§1) The inhibitory activity against different kinases was determined using kinase kits (BRAF WT
(§2) Glo Max luminescence kinase assay kit (Promega).
(§3) The assay was carried out according to the protocol provided by the manufacturer. A stock solution of the synthesized derivatives in 100% DMSO was prepared. Subsequently, the compounds were diluted to 10% DMSO.
(§4) A master mixture was prepared according to the number of wells. For BRAF assay each well include 6 μl of 5x Kinase Buffer 1 + 1 μl of ATP (500 μM) + 10 μl of 5X Raf substrate + 8 μl of distilled water. 1x Kinase buffer 1 was prepared by mixing 600 μl of 5x Kinase Buffer 1 with 2400 μl water to give 3 mL. Kinases were thawed on ice and were diluted with 1x Kinase Buffer 1. […]
(§5) The plate was incubated at 30 °C for 45 min. Subsequently, 50 μl of Kinase-Glo Max luminescence reagent was added to each well and the plate was covered with aluminum foil and incubated at room temperature for 15 min. Finally, the luminescence was recorded using multimode microplate reader. […]
(§6) The luminescence data were analyzed as follows. The difference between luminescence intensities in the absence of kinase (Lu t) and in the presence of kinase (Lu c) was defined as 100 %
(§7) calculated as: % activity = {(Lu t - Lu)/(Lut - Luc)} ×100%. The concentration of the test compounds required to reduce the kinase activity by 50% was determined from dose-response curves and

HSF cell line = assay: Cytotoxicity on HSF normal cell line (SRB assay); assay type: cell-based; details: HSF normal human skin fibroblast; mean of three ± SD
Experimental: The dichlorobenzimidazole derivative 10h was tested in Nawah scientific—Cairo—Egypt for its cytotoxic activity on HSF cell line as stated in the Additional file A [53, 54].
6. Analysis of 10h on HSF normal cell line
Human Skin Fibroblast (HSF) was obtained from Nawah Scientific Inc., (Mokatam, Cairo, Egypt). Cells were maintained in DMEM media supplemented with […] of streptomycin, 100 units/mL of penicillin and 10% of heat-inactivated fetal bovine serum in humidified, 5% (v/v) CO2atmosphere at 37 °C. Cell viability was assessed by SRB assay. Aliquots of 100 μL cell suspension (5x10^3 cells) were in 96-well plates and incubated in complete media for 24 h. Cells were treated with another aliquot of 100 μL media containing drugs at various concentrations.
After drug exposure, cells were fixed by replacing media with 150 μL of 10% TCA and incubated at 4 °C for 1 h. The TCA solution was removed, and the cells were washed 5 times with distilled water. Aliquots of 70 μL SRB solution (0.4% w/v) were added and incubated in a dark place at room temperature for 10 min. Plates were washed 3 times with 1% acetic acid and allowed to air-dry overnight. Then, 150 μL of TRIS (10 mM) was added to dissolve protein-bound SRB stain; the absorbance was measured at 540 nm using an Infinite F50 microplate reader (TECAN, Switzerland).
6.2. Dose response curve of 10h on HSF normal cell line
Figure 66. […]

VEGFR-2 = VEGFR-2 (Homo sapiens, UniProt P35968); assay: VEGFR-2 kinase assay (Kinase-Glo Max luminescence)
Experimental: as §1, §2, §3, §4, §5, §6, §7

[1] = HT29, 10h at its GI50 concentration, 48h

Chain of BRAFV600E (P15056 whole entry V600E): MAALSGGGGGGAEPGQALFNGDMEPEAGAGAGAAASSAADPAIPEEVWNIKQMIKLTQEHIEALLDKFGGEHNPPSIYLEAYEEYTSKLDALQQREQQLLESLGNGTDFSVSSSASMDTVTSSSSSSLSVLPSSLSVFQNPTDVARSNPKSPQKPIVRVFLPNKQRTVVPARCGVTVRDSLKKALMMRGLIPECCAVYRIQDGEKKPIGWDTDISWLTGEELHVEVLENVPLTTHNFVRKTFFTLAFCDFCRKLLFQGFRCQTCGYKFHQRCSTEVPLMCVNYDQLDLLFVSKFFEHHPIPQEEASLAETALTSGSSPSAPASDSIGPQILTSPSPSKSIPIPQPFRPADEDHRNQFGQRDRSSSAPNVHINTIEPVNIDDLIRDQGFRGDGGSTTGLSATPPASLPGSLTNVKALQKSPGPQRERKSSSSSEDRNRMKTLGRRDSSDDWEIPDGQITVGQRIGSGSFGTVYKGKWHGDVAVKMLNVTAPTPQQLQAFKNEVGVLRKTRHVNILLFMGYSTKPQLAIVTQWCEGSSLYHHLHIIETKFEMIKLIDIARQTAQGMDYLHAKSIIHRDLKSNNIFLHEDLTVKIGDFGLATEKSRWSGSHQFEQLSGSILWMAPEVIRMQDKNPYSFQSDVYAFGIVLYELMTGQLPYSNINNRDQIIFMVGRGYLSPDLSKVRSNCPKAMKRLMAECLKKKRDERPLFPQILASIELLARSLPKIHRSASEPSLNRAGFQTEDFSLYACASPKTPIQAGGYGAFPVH
Chain of VEGFR-2 (P35968 20-1356): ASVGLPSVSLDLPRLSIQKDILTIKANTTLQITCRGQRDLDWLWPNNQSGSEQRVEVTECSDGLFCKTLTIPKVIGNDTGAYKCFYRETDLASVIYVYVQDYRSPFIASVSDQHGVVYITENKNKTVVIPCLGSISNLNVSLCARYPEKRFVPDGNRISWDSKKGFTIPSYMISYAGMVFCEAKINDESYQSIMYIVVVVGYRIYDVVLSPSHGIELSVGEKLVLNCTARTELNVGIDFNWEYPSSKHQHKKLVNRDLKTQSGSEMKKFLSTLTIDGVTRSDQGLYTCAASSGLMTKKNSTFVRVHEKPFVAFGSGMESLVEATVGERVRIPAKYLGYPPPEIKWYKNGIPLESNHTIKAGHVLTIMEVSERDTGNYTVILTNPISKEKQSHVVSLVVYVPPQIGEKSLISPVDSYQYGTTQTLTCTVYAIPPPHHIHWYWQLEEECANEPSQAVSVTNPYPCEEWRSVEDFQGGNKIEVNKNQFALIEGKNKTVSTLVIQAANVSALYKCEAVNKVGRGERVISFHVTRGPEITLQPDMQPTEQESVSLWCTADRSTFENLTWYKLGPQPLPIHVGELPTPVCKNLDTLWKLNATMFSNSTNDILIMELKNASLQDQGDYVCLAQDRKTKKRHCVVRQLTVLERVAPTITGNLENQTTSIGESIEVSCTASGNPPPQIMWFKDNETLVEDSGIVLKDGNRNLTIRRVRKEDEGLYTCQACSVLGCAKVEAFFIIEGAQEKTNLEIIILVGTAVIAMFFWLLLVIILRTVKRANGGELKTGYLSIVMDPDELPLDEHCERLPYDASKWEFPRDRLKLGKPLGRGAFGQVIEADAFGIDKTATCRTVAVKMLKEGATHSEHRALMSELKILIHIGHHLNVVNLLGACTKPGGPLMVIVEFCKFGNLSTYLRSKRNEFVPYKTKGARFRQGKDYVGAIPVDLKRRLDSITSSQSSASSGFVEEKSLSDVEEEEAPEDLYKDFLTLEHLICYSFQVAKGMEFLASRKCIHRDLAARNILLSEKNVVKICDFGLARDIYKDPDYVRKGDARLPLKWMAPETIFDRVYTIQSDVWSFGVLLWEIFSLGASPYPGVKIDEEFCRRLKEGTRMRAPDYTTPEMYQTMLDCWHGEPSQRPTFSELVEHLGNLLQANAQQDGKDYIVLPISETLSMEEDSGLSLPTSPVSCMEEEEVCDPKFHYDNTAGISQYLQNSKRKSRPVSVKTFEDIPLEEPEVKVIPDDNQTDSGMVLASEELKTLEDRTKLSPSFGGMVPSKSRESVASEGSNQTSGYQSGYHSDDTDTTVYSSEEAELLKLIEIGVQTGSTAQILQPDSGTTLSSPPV

COC(=O)COc1ccc(C=NNC(=O)Cn2c(-c3ccc(OC)cc3)nc3cc(Cl)c(Cl)cc32)cc1 [Compound 10h, Methyl-2-(4-((2-(2-(5,6-dichloro-2-(4-methoxyphenyl)-1H-benzo[d]imidazol-1-yl)acetyl)hydrazono)methyl)phenoxy)acetate]
%G0/G1 (HT29 cell line; [1]): 62.69% | %G2/M (HT29 cell line; [1]): 19.26% | %S (HT29 cell line; [1]): 18.04% | %Sub-G1 (HT29 cell line; [1]): 10.45% | effect on cell cycle progression (HT29 cell line; HT29 colon cancer cell line): arrested cell cycle progression in HT29 colon cancer cell line at G2/M phase | IC50 (BRAFV600E): 2.76 ± 0.15 µM | IC50 (HSF cell line): > 100 µM | IC50 (VEGFR-2): 1.52 ± 0.14 µM
